The values that follow come from PubChem BioAssay (NCI).

Structures are written as SMILES.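 1) Cells in 96-well plates. 2) Compound, 48 h, 5 concentrations. 3) Linear interpolation between surrounding doses. 4) Unreached endpoint = highest concentration. Abbreviation: GI50, concentration required for 50% inhibition of growth. TGI is the concentration that stops growth completely.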

Among the test systems are KM12 colon; SK-MEL-28 melanoma; HOP-92 NSCLC; COLO 205 colon; SK-MEL-2 melanoma; HCC-2998 colon; RPMI-8226 leukemia; HL-60(TB) leukemia; LOX IMVI melanoma; SK-MEL-5 melanoma.
What all share (test): NCI-60 cell line screen, 48 h

As for `O=[Se]([O-])c1ccccc1.O=[Se]([O-])c1ccccc1.[OH3+].[OH3+].[Pt+2]`, the GI50 in the test on KM12 colon is 3.41 µM; in the test on SK-MEL-28 melanoma, 10.8 µM; in the test with HOP-92 NSCLC it was 14.4 µM; in the test with COLO 205 colon, 6.78 µM; with SK-MEL-2 melanoma, 12.7 µM; in the test with HCC-2998 colon, 16.6 µM. Moreover, the GI50 is 5.41 µM with RPMI-8226 leukemia, 2190 nM in the test on HL-60(TB) leukemia, 3.42 µM in the test with LOX IMVI melanoma and 13.9 µM in the test on SK-MEL-5 melanoma. The TGI with KM12 colon stood at 25 µM; with SK-MEL-28 melanoma it was 36.1 µM; in the test on HOP-92 NSCLC, 40.7 µM; in the test with COLO 205 colon, 18.4 µM; in the test with SK-MEL-2 melanoma, 35.5 µM; in the test on HCC-2998 colon, 55.9 µM. Moreover, the TGI in the test with RPMI-8226 leukemia is 39.7 µM; in the test with HL-60(TB) leukemia, 5.66 µM; with LOX IMVI melanoma, 19.2 µM; with SK-MEL-5 melanoma, 30.5 µM.
Regarding `CSC1=Nc2ccccc2N(C)c2c1c(-c1ccccc1)nn2C`, the TGI in the test on KM12 colon was greater than 100 µM; in the test with SK-MEL-28 melanoma, greater than 100 µM; in the test with HOP-92 NSCLC, greater than 100 µM; with COLO 205 colon it was greater than 100 µM; in the test on SK-MEL-2 melanoma it was 82.7 µM; in the test with HCC-2998 colon, 56 µM. The TGI in the test with RPMI-8226 leukemia was 37.1 µM; with HL-60(TB) leukemia it was 34.3 µM; with LOX IMVI melanoma, greater than 100 µM; with SK-MEL-5 melanoma, 43.4 µM.
On to `N#Cc1c(NC(=S)NC(=O)c2ccccc2)nc2c(c1-c1ccccc1)CCC2`, for which the TGI in the test on KM12 colon, with COLO 205 colon, in the test with RPMI-8226 leukemia, in the test with HL-60(TB) leukemia, in the test with LOX IMVI melanoma and in the test on SK-MEL-5 melanoma was greater than 100 µM in each case.
`COC1OC(=O)[C@H]2O[N+]([O-])=C(C)[C@@H]12` (stereo partly drawn): the TGI with KM12 colon, with SK-MEL-28 melanoma, in the test with HOP-92 NSCLC, with COLO 205 colon, with SK-MEL-2 melanoma and in the test with HCC-2998 colon was greater than 100 µM throughout. Also, the TGI in the test with RPMI-8226 leukemia, with HL-60(TB) leukemia, with LOX IMVI melanoma and in the test with SK-MEL-5 melanoma was greater than 100 µM in each case.
In the case of `C=CC(=O)Nc1cccc(-c2nc(SC)nc(Nc3ccccc3OC)c2C#N)c1`, the GI50 in the test with KM12 colon was 3.02 µM; in the test on SK-MEL-28 melanoma it was 2.29 µM; in the test on HOP-92 NSCLC, 1.7 µM; in the test with COLO 205 colon it was 1.95 µM; in the test on SK-MEL-2 melanoma, 2.56 µM; with HCC-2998 colon, 2.58 µM. Moreover, the GI50 with RPMI-8226 leukemia is 3.11 µM; with HL-60(TB) leukemia, 2530 nM; in the test on SK-MEL-5 melanoma, 1.9 µM. For the same compound, the TGI with KM12 colon is 12 µM; with SK-MEL-28 melanoma it was 5.71 µM; in the test on HOP-92 NSCLC it was 4.28 µM; in the test on COLO 205 colon, 5.33 µM; in the test with SK-MEL-2 melanoma it was 8.58 µM; in the test with HCC-2998 colon, 8.66 µM. The figures for the TGI in the test with RPMI-8226 leukemia, in the test with HL-60(TB) leukemia and in the test on SK-MEL-5 melanoma were greater than 100 µM, 13 µM and 4.32 µM, respectively.
Turning to `Nc1n[nH]c(=O)[nH]1`, the TGI in the test with KM12 colon, in the test with SK-MEL-28 melanoma, in the test on HOP-92 NSCLC, with COLO 205 colon, with SK-MEL-2 melanoma and in the test with HCC-2998 colon was greater than 100 µM each time. Also, the TGI with RPMI-8226 leukemia, in the test on HL-60(TB) leukemia, in the test on LOX IMVI melanoma and in the test on SK-MEL-5 melanoma was greater than 100 µM in each case.
As to `O=C1CC(=O)N(c2ccccc2)N1/C(=C/c1ccccc1)c1ccccc1`, the TGI was found to be 66.5 µM in the test with KM12 colon; 26 µM in the test with SK-MEL-28 melanoma; 31.3 µM in the test on HOP-92 NSCLC; 36.6 µM with COLO 205 colon; 69 µM in the test with SK-MEL-2 melanoma; 37.3 µM in the test on HCC-2998 colon. Further, the TGI in the test with RPMI-8226 leukemia stood at 34.5 µM; in the test on LOX IMVI melanoma, 3.06 µM; in the test with SK-MEL-5 melanoma, 28.2 µM.
